# In article PMC6388989 (Cancer Management and Research, 2019):
# “Also recorded” adds a separate entry of the source.
# Experiments:
# [1] = system: NIH-3T3 cells; conditions: at 50 µM
# [2] = system: NCI-H460 cells; assay type: cell-based, human; conditions: 48 hours
# [3] = system: H460 cells; assay type: cell-based, human
# [4] = system: NCI-H460 cells; assay type: cell-based, human; conditions: 48 hours; remark: listed apart in the source
# [5] = system: NCI-H460 cells; assay type: cell-based, human; conditions: 48 hours; remark: listed apart in the source
# [6] = system: NCI-H460 cells; assay type: cell-based, human
# [7] = system: H460 cells; assay type: cell-based, human; remark: listed apart in the source
# [8] = system: protein markers in NCI-H460 cells; assay type: cell-based, human; conditions: 48 hours
# [9] = system: NCI-H460 cells; assay type: cell-based, human; remark: listed apart in the source
# [10] = system: NCI-H460 cells; assay type: cell-based, human; remark: listed apart in the source
# [11] = system: marker genes in NCI-H460 cells; assay type: cell-based, human; conditions: 48 hours
# [12] = system: 3T3 cells
smiles,measurement,setting,value
"C=C(C)[C@@H]1CC[C@]2(CO)CC[C@]3(C)[C@H](CC[C@@H]4[C@@]5(C)CC[C@H](O)C(C)(C)[C@@H]5CC[C@]43C)[C@@H]12 [Betulin (3), Lup-20 (29)-ene-3, 28-diol]",cytotoxicity to normal NIH-3T3 cells,[1],noncytotoxic
same,invasive ability of NCI-H460 cells,[2],inhibited in a dose-dependent manner
same,morphological changes of H460 cells,[3],membrane blebbing and formation of apoptotic bodies
same,mitochondrial membrane potential (Δψm),[4],collapse of MMP
same,nuclear morphology,[5],"highly condensed nucleus, apoptotic bodies and DNA fragmentation"
same,activity against cancer cells compared to normal 3t3 cells,[6],four times more active
same,colony formation,[7],completely eradicated cancer cells
same,BCL-2L1 protein expression (immunocytochemistry),[8],marked inhibition
same,caspase-3 protein expression (immunofluorescence),[8],significant upregulation
same,caspase-6 protein expression (immunofluorescence),[8],significant upregulation
same,caspase-8 protein expression (immunofluorescence),[8],decreased with the increase in betulin treatment
same,expression of proliferative marker Ki-67,[8],significant inhibition
same,osteopontin levels (immunocytochemistry),[8],positively inhibited
same,induction of apoptosis (FACS),[9],significantly underwent apoptosis in a dose-dependent manner
same,reduction in wound healing rates of treated vs untreated cells,[10],approximate threefold reduction
same,BAK gene expression,[11],upregulated
same,BAX gene expression,[11],upregulated
same,BCL-2L1 gene expression,[11],significantly downregulated
same,COX-2 gene expression,[11],inhibited
same,HRK gene expression,[11],upregulation
same,VEGF gene expression,[11],inhibited
same,caspase-3 gene expression,[11],significantly upregulated
same,caspase-6 gene expression,[11],significantly upregulated
same,caspase-8 gene expression,[11],inhibited; also recorded: significantly downregulated
same,caspase-9 gene expression,[11],significantly upregulated
same,p53 gene expression,[11],significantly downregulated
same,morphology of 3T3 cells,[12],regained their normal morphology and started to propagate
